Patent publication US20130281413A1, “Salicylate Conjugates Useful For Treating Metabolic Disorders” (Genmedica Therapeutics SL, priority 2008, published 2013)

Assays:
β-cells [1] = test: In vivo beta cell protection model (alloxan), FIG. 6; parameters: species or system cd-1 mice; conditions: for effect of alloxan on β-cells: lysine salts, single i.p. administration 1 hour before alloxan 200 mg/kg
Procedure: Beta-cell destruction was induced in cd-1 mice after 3 hours of fasting by a single intraperitoneal injection of a freshly prepared solution of alloxan 200 mg/kg (Sigma-Aldrich, San Luis, Mo.) that was dissolved in NaCl 0.9%. Single intraperitoneal drug administration was 1 hour before the alloxan administration. Animals received the different drugs dissolved in PBS pH 7.4, and the animals that not received any drug were injected with the vehicle, in this case PBS pH 7.4. At the end of the treatment, at day 4, animals were killed and the plasma collected and kept at −20° C. until used.
The circulating glucose concentration was determined by a rapid glucose analyzer (Accu-Chek Aviva; Roche). Plasma triglycerides and non esterified fatty acids were determined with standard colorimetric methods (Biosystems, Barcelona, Spain, and Wako Chemicals, Neuss, Germany, respectively). Plasma insulin concentration was determined by enzyme-linked immunosorbent assay method (CrystalChem, Downers Grove, Ill.).

[2] = tested on: Zucker fa/fa rats or ob/ob mice; conditions: 120 mg/kg/day subcutaneous infusion, 3-4 weeks; cited from earlier work
β-cells [3] = test: Preserving β-cell function of mice challenged by one shot of streptozotocin; assay type: in vivo; conditions: oral or intraperitoneal, prior and during 5 days following streptozotocin 45 mg/kg i.p.
Procedure: Further, compounds of the present invention, such as Salnacedin, are tested for their efficiency at preserving β-cell function of mice challenged by one shot of streptozotocin (45 mg/kg i.p.).

β-cells [4] = test: Protection of β-cell failure and prevention of hyperglycemia in streptozotocin treated rats; assay type: in vivo
[5] = tested on: animal models of diabetes; test: Summary of effects in different animal models of diabetes; assay type: in vivo
ob/ob and db/db mice = test: Restoration of insulin sensibility in ob/ob and db/db mice; assay type: in vivo
Procedure: Eight week old ob/ob and db/db mice are treated for 3 to 4 weeks with a daily dose of 250 mg/kg of a compound of the present invention, such as […], by oral gavage or with drug mix with food or subcutaneously. […] Additionally, the levels of insulin are measured 15 min following the glucose loading to determine the capacity of the β-cells to secrete insulin.

[6] = tested on: streptozotocin-induced diabetic mice; test: Type 1 diabetic model in mice (streptozotocin 120 mg/kg i.p.); assay type: in vivo; conditions: 4 weeks
Procedure: Mice induced by streptozotocin injection (120 mg/kg i.p.) are treated for 4 weeks with 250 mg/kg/day (oral or i.p.) of a compound of the present invention, such as […]. At the end of the 4 week treatment, fasting glucose, fructosamine, triglycerides and cholesterol are measured.

[7] = tested on: Zucker diabetic fatty (ZDF) rats; test: Restoration of insulin sensitivity in Zucker diabetic fatty (ZDF) rats; assay type: in vivo; conditions: 250 mg/kg oral daily
Procedure: To assess whether conjugates comprising an antioxidant agent and an inflammatory agent would prevent glucose toxicity and progression of diabetes mellitus associated with β-cell failure overtime, we assessed whether compounds of Formula (I), including salnacedin, would alter the development of the disease in this Type 2 diabetic animal model.
Zucker diabetic rats from 6 to 12 weeks of age are treated daily with an oral dose of 250 mg/kg of a compound of the present invention, such as salnacedin.

human diabetic patients = conditions: 4.5 g/day; cited from earlier work
IKKβ = conditions: diabetic animals; cited from earlier work
[8] = 250 mg/kg/day oral or i.p., vs control group

## CC(=O)N[C@@H](CSC(=O)c1cc(-c2ccc(F)cc2F)ccc1O)C(=O)O [GMC-1.3b, diflunisal-(L) N-acetyl cysteine]
β-cells [1]
  effect of alloxan on β-cells: reduce the effect of alloxan on β-cells

## O=C(O)c1ccccc1O [Salicylate]
[2]
  fasting blood glucose: reduction in fasting blood glucose
  glucose tolerance: glucose tolerance improvement

## CC(=O)N[C@@H](CSC(=O)c1ccccc1O)C(=O)O [Example 1, (R)-2-acetamido-3-(2-hydroxybenzoylthio)propanoic acid]
β-cells [1]; alloxan-treated animals, indicates pancreatic beta cell protection
  insulin levels: preservation of insulin levels
β-cells [3]
  β-cell protection from oxidative stress and development of hyperglycemia over time: protects β-cells from oxidative stress and reduces the development of hyperglycemia over time compared to control
β-cells [4]; pretreated rats vs control group, associated with preserved capacity of β-cell to secrete insulin
  blood glucose level: lower than the control group
β-cells [4]; rats, ~250 mg/kg orally and/or intraperitoneally prior to streptozotocin 45 mg/kg i.p., followed by 4 additional treatment days
  β-cell preservation and development of hyperglycemia: preserve β-cells, reducing the development of hyperglycemia
β-cells [4]; streptozotocin model, markers of oxidative stress and lipid peroxidation in the blood
  levels of 8-hydroxy-deoxyguanosine (8 OhdG) and malondialdehyde+4-hydroxy-2-nonenal (4HNE): reduce
[5]
  hypolipidemic, anti-diabetic and antioxidant effects: strong hypolipidemic and anti-diabetic effects as well as antioxidant properties
ob/ob and db/db mice; 250 mg/kg daily, 3 to 4 weeks, oral gavage, in food or subcutaneously, vs control or salicylate/antioxidant alone
  fasting blood glucose values: reduced compared to the control group
ob/ob and db/db mice; evidenced by a sustained and pronounced glucose lowering effect
  insulin sensitivity: improve insulin sensitivity
ob/ob and db/db mice; insulin measured 15 min following the glucose loading, vs control
  capacity of the β-cells to secrete insulin: greater
ob/ob and db/db mice; level of associated biomarkers
  oxidative stress and lipid peroxidation (8 OhdG, malondialdehyde, 4HNE): a reduction in oxidative stress and lipid peroxidation
ob/ob and db/db mice; liver and kidney
  levels of glutathione (GSH): restored
ob/ob and db/db mice; mouse, in vivo
  inflammatory cytokines TNFα and IL-6: reduced
ob/ob and db/db mice; vs non treated animal
  glucose tolerance test (OGTT or IPTT): elevation of glucose levels: a reduction in the elevation of glucose levels during the test
[6]; [8]
  cholesterol: reduced in comparison to control group
  fasting glucose: reduced in comparison to control group
  fructosamine: reduced in comparison to control group
  triglycerides: reduced in comparison to control group
[6]; 250 mg/kg/day, vs salicylic acid alone or N-acetylcysteine alone
  reduction in plasmatic parameters compared with a salicylate or an antioxidant alone: more pronounced
[7]; 6 weeks, vs control group
  Hb1Ac: reduced in comparison to the control group
  cholesterol: reduced in comparison to the control group
  fasting glucose: reduced in comparison to the control group
  fructosamine: reduced in comparison to the control group
  triglycerides: reduced in comparison to the control group
[7]; from 6 to 12 weeks of age
  glucose tolerance test: improves the glucose tolerance test
  insulin secretion from β-cells: preserves insulin secretion from β-cells
  worsening of hyperglycemia: partially prevents the worsening of hyperglycemia

## O=C(Oc1ccccc1C(=O)O)c1ccccc1O [salsalate]
Human diabetic patients
  effects in human diabetic patients: Beneficial effects
  side effects, such as tinnitus, enhanced by: 66%
IKKβ
  IKKβ activity: decrease in IKKβ activity
  insulin sensitivity: improvement in insulin sensitivity

## CC(=O)NC(CSC(=O)c1ccccc1O)C(=O)O (stereo not shown) [GMC-1.3a, salicylic acid-(L) N-acetyl cysteine]
β-cells [1]
  effect of alloxan on β-cells: reduce the effect of alloxan on β-cells
